# Where “and” joins values, the source holds several entries; their conditions need not be identical. Identical values can stand only once.
# Tested on: Bla g-specific T cells (PBMC)
# Test: ELISPOT assays: IL-5, IFN-γ and IL-10 production by in vitro expanded PBMC of Cockroach-allergic donors
# Format: cell-based, human
# Details: for IFNγ / IL-5: individual peptide, one line per responding donor; for Total SFCs: IL-5 plus IFN-γ, summed over responding donors; for Cumulative Response: cumulative over regions ranked by total SFCs; for Donors Responding: number of allergic donors (34 tested) with T cell response to the region; for % Total Response: share of total Bla g specific response; for POST-SIT IFNg / POST-SIT IL-5 / POST-SIT IL-10: 6 months after initiation of SIT; for PRE-SIT IL-5 / PRE-SIT IL-10 / PRE-SIT IFNg: before SIT; for PRE-SIT IFNg: one line per donor/peptide
# Description: In vitro expansion of Bla g-specific T cells: PBMC were cultured in RPMI 1640 (V Scientific, Tarzana, Calif.) supplemented with 5% human serum (Cellgro, Herndon, Va.) at a density of 2×10^6 cells/ml in 24-well plates (BD Biosciences, San Jose, Calif.) and stimulated with 25 μg/ml German Cockroach (Blatella germanica; Bla g) extract (Greer, Lenoir, N.C.), or individual peptides. […] On day 14, cells were harvested and screened for reactivity against Bla g-specific peptide pools or individual peptides. ELISPOT assays: The production of IL-5, IFN-γ, and IL-10 was analyzed in ELISPOT assays. […] Cells were then incubated at a density of 1×10^5/well either with peptide pools or individual peptides (10 μg/ml), German Cockroach extract (25 μg/ml), PHA (10 μg/ml), or medium (containing 1% DMSO corresponding to the percentage of DMSO in the pools/peptides) as a control. […] Louis, Mo.). Spots were counted by computer-assisted image analysis (Zeiss, KS-ELISPOT reader, Munich, Germany). Each assay was performed in triplicate. The level of statistical significance was determined with a Student's t-test using the mean of triplicate values of the response against relevant pools or individual peptides versus the response against the DMSO control.
sequence,measurement,value
ALREKVLGLPAIKAW (listed as Blattella germanica),IFNγ,843 SFC and 100 SFC and 0 SFC and 183 SFC and 147 SFC and 1690 SFC
same,IL-5,0 SFC (3×) and 267 SFC and 380 SFC and 1087 SFC
"EAMEKELREAFRLYD (listed as Blattella germanica) [Region 21, Bla g 6 position 86]",Total SFCs,53 SFCs
same,Cumulative Response,99.8%
same,IFNγ,0 SFC
same,IL-5,53 SFC
same,Donors Responding,1
same,% Total Response,0.2%
EEFVSLASRFLVEED (listed as Blattella germanica),IFNγ,220 SFC
same,IL-5,0 SFC
"EFVTLAAKFIIEEDS (listed as Blattella germanica) [Region 19, Bla g 6 position 71]",Total SFCs,443 SFCs
same,Cumulative Response,91.8%
same,IFNγ,0 SFC
same,IL-5,443 SFC
same,Donors Responding,1
same,% Total Response,1.8%
EQISVLRKAFDAFDR (listed as Blattella germanica),IFNγ,0 SFC
same,IL-5,340 SFC
EVVKANGGYLAAGKL (listed as Blattella germanica),IFNγ,80 SFC and 380 SFC
same,IL-5,467 SFC and 0 SFC
"FAVATITHAAELQRV (listed as Blattella germanica) [Region 5, Bla g 2 position 11]","T cell response pattern (IL-5 / IFN-γ), in words",only associated with IFN-γ production
same,Total SFCs,855 SFCs
same,Cumulative Response,86.9%
same,IFNγ,855 SFC
same,IL-5,0 SFC
same,Donors Responding,1
same,% Total Response,3.5%
"FETIVVTVDSLPEFK (listed as Blattella germanica) [Region 1, Bla g 1 position 351]",Total SFCs,167 SFCs
same,Cumulative Response,98.5%
same,IFNγ,167 SFC
same,IL-5,0 SFC
same,Donors Responding,1
same,% Total Response,0.7%
FLLSYGEKDFEDYRF (listed as Blattella germanica),IFNγ,0 SFC (2×) and 77 SFC and 127 SFC
same,IL-5,1537 SFC and 0 SFC and 203 SFC and 193 SFC
GEPIRFLLSYGEKDF (listed as Blattella germanica),IFNγ,205 SFC
same,IL-5,0 SFC
"GNQNFLTVFDSTSCN (listed as Blattella germanica) [Region 7, Bla g 2 position 46]","T cell response pattern (IL-5 / IFN-γ), in words",only associated with IFN-γ production
same,Total SFCs,55 SFCs
same,Cumulative Response,99.6%
same,IFNγ,55 SFC
same,IL-5,0 SFC
same,Donors Responding,1
same,% Total Response,0.2%
GYITTNVLREILKEL (listed as Blattella germanica) [Region 25],POST-SIT IFNg,0 SFC/10^6
same,POST-SIT IL-5,0 SFC/10^6
same,POST-SIT IL-10,0 SFC/10^6
same,Total SFCs,50 SFCs
same,PRE-SIT IL-5,50 SFC/10^6
same,PRE-SIT IL-10,0 SFC/10^6
same,PRE-SIT IFNg,0 SFC/10^6
same,Cumulative Response,100.0%
same,IFNγ,0 SFC
same,IL-5,50 SFC
same,Donors Responding,1
same,% Total Response,0.2%
"HFFIGDFFVDHYYSE (listed as Blattella germanica) [Region 9, Bla g 2 position 321]",Total SFCs,250 SFCs
same,Cumulative Response,96.8%
same,IFNγ,250 SFC
same,IL-5,0 SFC
same,Donors Responding,1
same,% Total Response,1.0%
HMAKEDLVANQPNLK (listed as Blattella germanica),IFNγ,610 SFC
same,IL-5,273 SFC
"ISSQYYIQQNGNLCY (listed as Blattella germanica) [Region 8, Bla g 2 position 296]",Total SFCs,153 SFCs
same,Cumulative Response,99.1%
same,IFNγ,153 SFC
same,IL-5,0 SFC
same,Donors Responding,1
same,% Total Response,0.6%
IVQTLNAMPEYQNLL (listed as Blattella germanica),IFNγ,153 SFC
same,IL-5,87 SFC
LRKAFDAFDREKSGS (listed as Blattella germanica),IFNγ,90 SFC
same,IL-5,327 SFC
"MVGTILEMLGHRLDD (listed as Blattella germanica) [Region 24, Bla g 6 position 31]",POST-SIT IFNg,0 SFC/10^6
same,POST-SIT IL-5,0 SFC/10^6
same,POST-SIT IL-10,0 SFC/10^6
same,Total SFCs,317 SFCs
same,PRE-SIT IL-5,50 SFC/10^6
same,PRE-SIT IL-10,0 SFC/10^6
same,PRE-SIT IFNg,0 SFC/10^6
same,Cumulative Response,95.8%
same,IFNγ,0 SFC
same,IL-5,50 SFC
same,Donors Responding,2
same,% Total Response,1.3%
MVGTILEMLGTRLDQ (listed as Blattella germanica),IFNγ,0 SFC
same,IL-5,267 SFC
PEFQSIVQTLNAMPE (listed as Blattella germanica),IFNγ,87 SFC
same,IL-5,0 SFC
"PEFQSIVQTLNAMPEYQNLL (listed as Blattella germanica) [Region 3, Bla g 1 position 40]",POST-SIT IFNg,0 SFC/10^6
same,POST-SIT IL-5,0 SFC/10^6
same,POST-SIT IL-10,0 SFC/10^6
same,Total SFCs,327 SFCs
same,PRE-SIT IL-5,87 SFC/10^6
same,PRE-SIT IL-10,0 SFC/10^6
same,PRE-SIT IFNg,153 SFC/10^6
same,Cumulative Response,93.2%
same,Donors Responding,2
same,% Total Response,1.3%
"PELQNFLNFLEANGL (listed as Blattella germanica) [Region 4, Bla g 1 position 281]",Total SFCs,323 SFCs
same,Cumulative Response,94.5%
same,IFNγ,323 SFC
same,IL-5,0 SFC
same,Donors Responding,1
same,% Total Response,1.3%
"PEQIQLLKKAFDAFD (listed as Blattella germanica) [Region 23, Bla g 6 position 6]","T cell response pattern (IL-5 / IFN-γ), in words",only IL-5 production
same,Total SFCs,1245 SFCs
same,Cumulative Response,66.6%
same,IFNγ,0 SFC
same,IL-5,1172 SFC and 73 SFC
same,Donors Responding,2
same,% Total Response,5.1%
"PLYKLVHVFINTQYA (listed as Blattella germanica) [Region 6, Bla g 2 position 26]",Total SFCs,240 SFCs
same,Cumulative Response,97.8%
same,IFNγ,240 SFC
same,IL-5,0 SFC
same,Donors Responding,1
same,% Total Response,1.0%
"SGTVDFDEFMEMMTG (listed as Blattella germanica) [Region 22, Bla g 6 position 140]",Total SFCs,57 SFCs
same,Cumulative Response,99.4%
same,IFNγ,0 SFC
same,IL-5,57 SFC
same,Donors Responding,1
same,% Total Response,0.2%
"SMPFGKTPVLEIDGK (listed as Blattella germanica) [Region 11, Bla g 5 position 46]",Total SFCs,874 SFCs
same,Cumulative Response,83.4%
same,IFNγ,57 SFC and 250 SFC
same,IL-5,0 SFC and 567 SFC
same,Donors Responding,2
same,% Total Response,3.6%
VLGLPAIKAWVAKRP (listed as Blattella germanica),IFNγ,50 SFC and 73 SFC
same,IL-5,0 SFC and 133 SFC
